One data set addresses T1, recombinant human CYP1A1 (Homo sapiens, UniProt P04798).
T1 sequence (P04798 1-512): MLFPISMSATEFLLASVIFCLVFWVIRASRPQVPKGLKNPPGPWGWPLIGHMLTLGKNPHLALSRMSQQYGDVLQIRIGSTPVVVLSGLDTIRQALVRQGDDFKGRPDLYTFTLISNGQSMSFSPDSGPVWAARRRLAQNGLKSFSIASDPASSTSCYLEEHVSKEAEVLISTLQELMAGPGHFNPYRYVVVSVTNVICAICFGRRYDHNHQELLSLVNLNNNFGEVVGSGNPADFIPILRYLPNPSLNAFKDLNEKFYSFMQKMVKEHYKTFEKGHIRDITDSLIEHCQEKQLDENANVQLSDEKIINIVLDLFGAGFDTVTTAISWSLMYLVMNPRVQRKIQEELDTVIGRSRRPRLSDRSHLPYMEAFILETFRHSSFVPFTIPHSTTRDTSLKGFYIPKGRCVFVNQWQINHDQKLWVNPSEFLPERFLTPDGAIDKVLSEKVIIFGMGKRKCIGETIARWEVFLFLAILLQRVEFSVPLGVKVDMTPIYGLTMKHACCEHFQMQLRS
In words: EROD assay, CYP1A1 inhibition. Format: biochemical.

In data set [1] the test system is orthotopic 4T1 breast cancer models. Particulars: by inhibiting tumor-cell platelet aggregation, ref [63]; cited from earlier work.
Another data set concerns the target T2, CYP1B1 over CYP1A1 (Homo sapiens, UniProt Q16678).
T2 sequence (Q16678 1-543): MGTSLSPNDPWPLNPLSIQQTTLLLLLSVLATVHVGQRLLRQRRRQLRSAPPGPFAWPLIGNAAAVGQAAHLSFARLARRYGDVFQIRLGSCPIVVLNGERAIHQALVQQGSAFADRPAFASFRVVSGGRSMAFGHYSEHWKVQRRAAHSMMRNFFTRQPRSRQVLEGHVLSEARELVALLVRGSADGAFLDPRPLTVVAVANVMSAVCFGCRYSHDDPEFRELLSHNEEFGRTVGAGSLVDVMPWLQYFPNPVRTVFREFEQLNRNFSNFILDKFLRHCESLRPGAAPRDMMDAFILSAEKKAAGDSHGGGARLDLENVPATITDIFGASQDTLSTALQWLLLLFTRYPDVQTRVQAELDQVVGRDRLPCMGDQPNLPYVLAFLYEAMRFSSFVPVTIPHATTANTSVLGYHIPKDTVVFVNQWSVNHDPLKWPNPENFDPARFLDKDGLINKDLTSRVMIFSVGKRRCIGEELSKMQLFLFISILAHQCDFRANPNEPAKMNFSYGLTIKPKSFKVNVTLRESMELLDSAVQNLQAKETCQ
The data set is described as follows: EROD assay, CYP1B1 inhibition. Particulars: human.

The next data set concerns the target T3, recombinant human CYP1B1 (Homo sapiens, UniProt Q16678).
T3 sequence (Q16678 1-543): T2 sequence (Q16678 1-543)
In words: EROD assay, CYP1B1 inhibition. To be noted: IC50 CYP1B1 ± SD, recombinant human enzyme, EROD assay, triplicate.

The subject of data set [2] is myeloid leukemia cell lines. To be noted: ref [64],[65]; cited from earlier work.
In a further data set the test system is MDA-MB-231. To be noted: MDA-MB-231, apoptosis mechanism; ref [66]; cited from earlier work.
Setting [3] is: pH 7.4, selectivity CYP1A1/CYP1B1, ratio of IC50 values.

Values joined by “and” are separate entries in the source; they are usually repeats but may differ in a detail not shown here. Equal entries are not always repeated. Bounds are passed on as bounds.

As a reminder, the IC50 is the midpoint of a concentration-inhibition curve. With `CCCSc1nc(N[C@@H]2C[C@H]2c2ccc(F)c(F)c2)c2nnn([C@@H]3C[C@H](OCCO)[C@@H](O)[C@H]3O)c2n1` [ticagrelor], the results for the half-inhibitory concentration (IC50) at recombinant human CYP1A1 and at recombinant human CYP1B1 were 3.45 ± 0.39 µM and 2.81 ± 0.9 µM, respectively. Also, the breast cancer prevention result in data set [1] is given as “breast cancer prevention activity”. The selectivity ratio on CYP1B1 over CYP1A1 (setting [3]) worked out at 1.22.

In the case of `CN(C)CC/C=C1/c2ccccc2Sc2ccc(Cl)cc21` [chlorprothixene], the IC50 at recombinant human CYP1A1 was 0.49 ± 0.04 µM; at recombinant human CYP1B1, 0.072 µM and 0.07 µM. Further, the cell death result in data set [2] was “induce cell death by apoptosis”. Also, the selectivity ratio at CYP1B1 over CYP1A1 (setting [3]) came out at 6.8; at CYP1B1 over CYP1A1 (pH 7.4, selectivity toward CYP1B1 over CYP1A1, text), 7.

Take `CC1CCc2c(N3CCC(O)CC3)c(F)cc3c(=O)c(C(=O)O)cn1c23` (stereo not shown) [nadifloxacin]: the 50% inhibitory concentration (IC50) at recombinant human CYP1A1 was 2.36 ± 0.2 µM; on recombinant human CYP1B1, 1.46 µM. Further, the anticancer activity entry with MDA-MB-231 is recorded as “promising anticancer activity”. The selectivity ratio on CYP1B1 over CYP1A1 (setting [3]) stood at 1.61.

As for `COc1ccc(Cl)cc1C(=O)NCCc1ccc(S(=O)(=O)NC(=O)NC2CCCCC2)cc1` [glibenclamide], the IC50 on recombinant human CYP1A1 and at recombinant human CYP1B1 was above 10 µM throughout.

`O=c1cc(-c2ccccc2)oc2c1ccc1ccccc12` [ANF, α-naphthoflavone]: at recombinant human CYP1A1, the IC50 was determined as 0.02 ± 0.004 µM.

(Values after publication PMC9476183 (ACS Omega, 2022).)
